Laboratory results as given in the NIST ThermoML archive (doi:10.1016/j.fluid.2008.01.004).
± gives the expanded uncertainty stated by the source.

Key:
[1] = mn = molality of the nth substance listed, in mol/kg; conditions: 283.15 K; 101 kPa; Liquid; m2 = 0
[2] = wn = mass fraction of the nth substance listed; conditions: 101 kPa, Liquid; for speed of sound: Sing-around technique in a fixed-path interferometer

O [water] + O=P([O-])([O-])[O-].[Na+].[Na+].[Na+]
Conditions	mass density [kg/m3]
[1]	999.699 ± 0.26

CCCO [propan-1-ol] + O
[2]
Conditions	mass density, 283.15 K [kg/m3]	mass density, 288.15 K [kg/m3]	mass density, 293.15 K [kg/m3]	mass density, 298.15 K [kg/m3]	mass density, 303.15 K [kg/m3]	speed of sound, 283.15 K [m/s]	speed of sound, 288.15 K [m/s]	speed of sound, 293.15 K [m/s]	speed of sound, 298.15 K [m/s]	speed of sound, 303.15 K [m/s]
w1 = 0.05	992.405 ± 0.29	991.687 ± 0.31	990.671 ± 0.31	989.387 ± 0.31	987.86 ± 0.29	1499 ± 1.1	1512.2 ± 1.1	1523.9 ± 1.1	1533.8 ± 1.1	1542.2 ± 1.1
w1 = 0.1	987.187 ± 0.29	986.194 ± 0.29	984.913 ± 0.29	983.372 ± 0.29	981.595 ± 0.29	1548.6 ± 1.1	1556.5 ± 1.1	1563.3 ± 1.1	1568.7 ± 1.1	1572.9 ± 1.1
w1 = 0.15	982.892 ± 0.3	981.496 ± 0.31	979.828 ± 0.31	977.921 ± 0.31	975.791 ± 0.31	1585.2 ± 1.1	1587.6 ± 1.1	1589 ± 1.1	1589.2 ± 1.1	1588.6 ± 1.1
